One data set has as its system small cell lung cancer. The experiment in a line: Example 8: small cell lung cancer patients with disease progression on IRESSA alone. The following applies: added to IRESSA about 250-500 mg per day; oral about 100 to 500 mg per day. Type of data set: in vivo, human.
For data set [1] the following is noted: cited from earlier work; for peak 1,25-dihydroxyvitamin D serum concentration: healthy volunteers.
The conditions of data set [2]: cited from earlier work.
Data set [3] has as its system F9 embryonal mouse teratocarcinoma cells. The note with it: all-trans RA-treated, differentiating F9 cells, 18 hour period; cited from earlier work.
The test system of another data set is ER+ or ER− tumor lines. The note with it: cited from earlier work.
Data set [4] deals with breast cancer, prostate cancer or leukemia. The experiment in a line: Example 4: patients with breast cancer, prostate cancer or leukemia. The following applies: oral 100 mg/square meter with oral IRESSA. Type of data set: in vivo, human.
Data set [5] has as its system advanced head and neck cancer. The experiment in a line: Example 5: patients with advanced head and neck cancer. It counts as in vivo, human. The note with it: oral 100 mg/square meter with oral IRESSA or intravenous C-225. The source says: Current systemic chemotherapy regimens are unable to prolong survival of patients with advanced head and neck cancer.
In data set [6] the test system is lung cancer. The experiment in a line: Example 6: patients with lung cancer. It counts as in vivo, human. The note with it: oral 100 mg/square meter with oral IRESSA.
Data set [7] has as its system lung cancer. The experiment in a line: Example 7: lung cancer patients with disease progression on IRESSA alone. Type of data set: in vivo, human. The following applies: added to IRESSA, oral 100 mg/square meter, optionally calcitriol 0.1-1 mcg per day.
The subject of data set [8] is retinoid receptor subtype. The following applies: competition with all-trans RA; cited from earlier work.
The test system of another data set is colorectal cancer. The note with it: cited from earlier work.
Data set [9] has as its system non small cell lung cancer. The experiment in a line: Example 2: patient with non small cell lung cancer. It counts as in vivo, human. As to the method: A patient suffering from non small cell lung cancer was treated with IRESSA® (250 mg per day) for two months. The disease progressed during the treatment and thae patient was continued on IRESSA® (250 mg per day) with daily dosage of 4-oxo-retinol (75 mg per day) for two months. The disease became stable and the patient continued taking IRESSA® (250 mg per day) for 4 more months without 4-oxo-retinol with a stale disease.

Data set [10] relates to refractory/progressive lung cancer. The following applies: single agent; cited from earlier work.
The next data set concerns Xenopus laevis. The note with it: Xenopus laevis system; cited from earlier work.
The test system of data set [11] is cutaneous T-cell lymphoma. The note with it: single patient, oral, with the VD analog calcitriol; cited from earlier work.
Where [12] appears, read: up to 32 mcg/day for 3 months, patients with osteopetrosis.
Where [13] appears, read: 4 mcg per day for 4 days, postmenopausal women.
[14] abbreviates: up to 2.7 mcg/day for 7 to 15 days, normal volunteers.
Setting [15] is: tumors capable of producing 4-oxo-retinol.
Where [16] appears, read: tumors that don't produce 4-oxo-retinol.

Several values for one entry are separate records, joined by “and”; a condition that tells them apart may be missing. Equal entries are not always repeated. Where two headings read alike, the source gives them in different places.

For the compound `C=C(c1ccc(C(=O)O)cc1)c1cc2c(cc1C)C(C)(C)CCC2(C)C` [bexarotene], the disease course result in the data set on small cell lung cancer is “stable disease or a reduced tumor burden”.

For the compound `C=C1/C(=C\C=C2/CCC[C@]3(C)[C@@H]([C@H](C)CCCC(C)(C)O)CC[C@@H]23)C[C@@H](O)C[C@@H]1O` [calcitriol], in [1] (2 mcg single oral dose), the “peak 1,25-dihydroxyvitamin D serum concentration” value was 0.235 nM and 0.351 nM. Also, in data set [1] (in vivo), the serum half life was 3 to 6 h and the “time to peak serum concentration” value is 2 h. Further, in data set [1] (single oral dose of 4 mcg), the “peak 1,25-dihydroxyvitamin D serum concentration” value is recorded as 0.42 nM. Further, in data set [1] (up to 3 mcg/day for 6-12 days, normal volunteers), the “stable 1,25-dihydroxyvitamin D serum levels” value is 0.184 to 0.235 nM. For the same compound, the “peak of stable serum levels of 1,25-dihydroxyvitamin D” value in data set [1] (setting [12]) is 2.32 nM. For the same compound, in data set [2] (setting [13]), the hypercalcemia entry is listed as “no clinically significant hypercalcemia”, the “patients with serum calcium above 10.8” value was “Four of the 27”, the urinary calcium excretion result was “increased” and the urinary hydroxyproline excretion entry is “no increase”. Moreover, the “dose tolerated without hypercalcemia” value in [2] (given intermittently) was at most 0.48 µg/kg. For the same compound, in data set [2] (in vivo), the “duration of hypercalcemic effect” value is 3 to 5 days and the “time of maximal hypercalcemic effect” value is 10 h. In [2] (single oral dose of 4 mcg, healthy volunteers), the serum calcium result was “no elevation”. In addition, in [2] (setting [14]), the “calcium absorption and excretion” value is “increased”; the serum calcium entry is on record as “no significant elevations”. For the same compound, the “patients with elevation in serum calcium” value in data set [2] (up to 3 mcg/day for 6-12 days, low calcium diet) was “None of the patients”. Also, the hypercalcemia entry in data set [2] (setting [12]) is listed as “no hypercalcemia”.

Take `CC1=C(/C=C/C(C)=C/C=C/C(C)=C/CO)C(C)(C)CCC1` [retinol, Retinol]: the “share of total retinol metabolized to 4-hydroxy-retinol and then 4-oxo-retinol” value in [3] is reported as 10-15%.

For `CC1=C(/C=C/C(C)=C/C=C/C(C)=C/C(=O)Nc2ccc(O)cc2)C(C)(C)CCC1` [N-(4-hydroxyphenyl)retinamide], the growth inhibition entry in the data set with ER+ or ER− tumor lines (setting [15]) was “growth inhibitory”; in the data set on ER+ or ER− tumor lines (setting [16]), “lack growth inhibitory effects”.

On to `CC1=C(/C=C/C(C)=C/C=C/C(C)=C/CO)C(C)(C)CCC1O` (centres unmarked) [4-hydroxy-retinol], for which the “tumor burden versus IRESSA alone” value (in data set [4]; in the data set on lung cancer [6]) was “reduced tumor burden” in each case. Further, the “survival rate versus IRESSA or C-225 alone” value in data set [5] is listed as “better survival rate”. Further, in the data set with lung cancer [7], the tumor burden result was “reduced tumor burden”. In addition, the “displacement of all-trans RA” value in [8] is on record as “Neither compound efficiently displaced all-trans RA”.

Turning to `CCc1c2c(nc3ccc(OC(=O)N4CCC(N5CCCCC5)CC4)cc13)-c1cc3c(c(=O)n1C2)COC(=O)[C@]3(O)CC` [IRITONECAN®], the single-agent activity entry in the data set with colorectal cancer is “significant single-agent activity”.

Consider `COc1cc2ncnc(Nc3ccc(F)c(Cl)c3)c2cc1OCCCN1CCOCC1` [IRESSA®, gefitinib], for which the disease course entry is listed as “progressed” in [9] (250 mg per day alone for two months) and “stale disease” in [9] (250 mg per day for 4 more months without 4-oxo-retinol). Moreover, the “overall rate of response” value in data set [10] is 10-15%.

For the compound `CC1=C(/C=C/C(C)=C/C=C/C(C)=C/C(=O)O)C(C)(C)CCC1` [all-trans RA, all-trans-retinoic acid], the “ED50, teratogenicity” value with Xenopus laevis is around 100 nM. For the same compound, the growth inhibition entry in the data set with ER+ or ER− tumor lines (setting [15]) was “growth inhibitory”; in the data set with ER+ or ER− tumor lines (setting [16]) it was “lack growth inhibitory effects”.

With `COc1cc(C)c(/C=C/C(C)=C/C=C/C(C)=C/C(=O)O)c(C)c1C` [acitretin], in [11], the clinical response result is “complete remission”.

These data come from US20060281813A1, “Methods of treating hyperproliferative cell disorders” (priority 2003, published 2006).
